Data taken from PubChem BioAssay (NCI).
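Tested at 5 concentrations; 48 h exposure; 96-well plates; endpoints linearly interpolated, else capped at highest concentration. Abbreviation: GI50, concentration required for 50% inhibition of growth. TGI: concentration producing complete growth inhibition.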

Legend:
Test in all cases: inhibition of tumour cell growth, NCI panel, 48 h
A549 NSCLC = system: A549 NSCLC
HCT-15 colon = system: HCT-15 colon
MDA-MB-231 breast = system: MDA-MB-231 breast
OVCAR-3 ovarian = system: OVCAR-3 ovarian
SK-MEL-28 melanoma = system: SK-MEL-28 melanoma
SN12C renal = system: SN12C renal
SNB-19 CNS = system: SNB-19 CNS
U251 CNS = system: U251 CNS

Row | Compound | TGI (A549 NSCLC) [µM] | TGI (HCT-15 colon) [µM] | TGI (MDA-MB-231 breast) [µM] | TGI (OVCAR-3 ovarian) [µM] | TGI (SK-MEL-28 melanoma) [µM] | TGI (SN12C renal) [µM] | TGI (SNB-19 CNS) [µM] | TGI (U251 CNS) [µM] | GI50 (A549 NSCLC) [µM] | GI50 (HCT-15 colon) [µM] | GI50 (MDA-MB-231 breast) [µM] | GI50 (OVCAR-3 ovarian) [µM] | GI50 (SK-MEL-28 melanoma) [µM] | GI50 (SN12C renal) [µM] | GI50 (SNB-19 CNS) [µM] | GI50 (U251 CNS) [µM]
1 | COc1ccc(CCN2C(=O)C=CC2=O)cc1OC | 50.2 | 3.83 | 28.5 | 36.4 | 31.4 | 32.5 | 37.2 | 39.1 |  |  |  |  |  |  |  | 
2 | COc1cc(O)c2c(O)c3c(c4c2c1[C@]1(C4)C(C)=CCCC1(C)C)[C@H](O)[C@@]1(O)CC(=O)C(C(N)=O)=C(O)[C@@]1(O)C3=O | 1.38 | 1.45 | 1.17 | 1.38 | 2.15 | 1.25 | 1.94 | 1.17 |  |  |  |  |  |  |  | 
3 | O=c1c2cccc(Cl)c2sc2c(NCCCNCCO)nc3ccccc3c12 | 3.39 | 3.33 | 3.54 | 6.19 | 3.54 | 14 | 20 | 4.13 | 1.31 | 1.54 | 1.4 | 2.28 | 1.85 | 2.62 | 5.8 | 1.84
4 | N#C/C(=C\c1ccc(-c2ccc(Cl)cc2)o1)C(=O)Nc1ncc(Cc2ccc(Cl)cc2)s1 | 3.05 | > 100 | 4.4 | 3.14 |  | 3.32 | 12.8 | 2.43 | 1.33 | 2.3 | 1.64 | 1.41 |  | 1.28 | 2.77 | 1.09
5 | Cn1c2ccccc2c(=S)c2ccccc21 | > 100 | > 100 | > 100 | > 100 | > 100 | > 100 | > 100 | > 100 |  |  |  |  |  |  |  | 
6 | Cn1cc(-c2nc(-c3c[nH]c4ncccc34)cs2)c2cc(F)ccc21 | > 25.6 | > 45 | 8.36 | 8.25 | 16.9 | 15.3 | 20 | 8.08 | 2.81 | 2.88 | 2.32 | 3.02 | 4.75 | 3.47 | 3.82 | 2.43
7 | Cc1nc(Cl)nc(Cl)c1C | > 100 | > 100 |  | > 100 | > 100 | > 100 | > 100 | > 100 |  |  |  |  |  |  |  | 
8 | CC1CC2(C)ON=C(c3ccccc3)N2c2ccccc2S1 (centres undefined) |  |  |  |  |  | 34.2 |  |  | 34.3 | 44.6 |  | 94.1 | 76.7 | 18 | 53.9 | 34.9
9 | C/C=C(\C)C(=O)N[C@H]1CC[C@]2(C)C3CC[C@@]4(C)C(CC[C@@H]4C(C)N(C)C)C3CCC2[C@H]1OC(C)=O (some centres undefined) | 4.69 | 2.4 | 4.02 | 4.34 | 3.24 | 4.26 | 4.13 | 3.56 | 2.07 | 0.762 | 1.91 | 1.59 | 1.59 | 1.7 | 2.1 | 1.55
10 | COc1cc2nc3sc(C(=O)Nc4ccc(C(=O)OC(C)C)cc4)c(C(=O)Nc4ccc(Cl)cc4C)n3c(=O)c2cc1OC | > 100 | > 100 | 38.4 | 10.6 | > 100 | 71.1 | 95.3 | 18.4 | 0.824 | 17.3 | 11.2 | 2.66 | 46.2 | 22.8 | 28 | 5.14
11 | COc1cc2c3c(n(CCCCOC(=O)C(F)(F)F)c(=O)c2cc1OC)-c1cc2c(cc1C3=O)OCO2 | > 100 | > 100 | > 82.2 | > 100 | > 100 | > 100 | > 100 | > 100 | > 100 | > 100 | 31.9 | > 89.8 | > 100 | > 93.9 | > 100 | > 38.8
12 | Cn1cc(C2=C(c3cccc4ccccc34)C(=O)NC2=O)c2ccccc21 | > 25 | > 25 | > 25 | 14.4 | > 25 | > 17.5 | > 25 | > 25 | 7.63 | 6.66 | 8.74 | 6.06 | 8.91 | 6.58 | 14 | 7.44
13 | O=C1NN(c2ccc(C(=O)O)cc2)C(=O)/C1=C\c1ccc([N+](=O)[O-])o1 | > 100 | 45.4 | > 100 | 42.3 | > 100 | > 100 | > 100 | > 100 | > 100 | 20.4 | 58.5 | 20.9 | > 100 | 58.8 | > 100 | 79.9
14 | COc1ccc2c(c1)c(-c1ccc(-c3cn(S(=O)(=O)c4ccccc4)c4ccc(OC)cc34)s1)cn2S(=O)(=O)c1ccccc1 | > 100 | > 100 | > 100 | > 100 | > 100 | > 100 | > 100 | > 100 | > 100 | > 100 | > 100 | > 100 | > 100 | > 100 | > 100 | > 100
15 | Oc1ccc(-c2nnc3sc(-c4ccc(F)c(Oc5ccccc5)c4)nn23)cc1 | > 100 | > 100 | 47.4 | 76.4 | > 100 | > 100 | > 100 | 36.5 | 30.9 | 91.2 | 16.4 | 28.8 | > 100 | 37.6 | 34.6 | 17.5
16 | Cc1nn(-c2nc3ccccc3s2)c(C)c1Oc1ccccc1O | 22.5 | 17.7 | 25.9 | 21.5 | 21.8 | 22 | 20.3 | 16.3 | 6.14 | 0.762 | 10.8 | 9.98 | 10.2 | 6.92 | 6.77 | 1.39
17 | CCCN(CCC)C(=O)C1=Cc2ccc(-c3ccc(C(=O)N4CCCC4)cc3)cc2N=C(N)C1 | 35.3 | 23.1 | 77 | 26.2 | 24.8 | 60 | > 100 | 24.6 | 7.69 | 4.8 | 13.2 | 8.19 | 8.91 | 18.4 | 18.8 | 7.69
